Data reported in ChEMBL document CHEMBL1201862, “PubChem BioAssay data set” (2004).
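Test compounds were applied to cells in 96-well plates for 48 hours at 5 doses. The concentration for 50% growth inhibition is given as GI50.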 Active and inactive are the calls of the source. No stated cut-off is given here; in the data, active = GI50 up to about 1.1 µM and inactive = higher.

How the values were obtained:
Assay in all cases: DTP human tumour cell line panel, 48 h
NCI-H226 = system: NCI-H226
HT-29 = system: HT-29
SK-MEL-28 = system: SK-MEL-28
OVCAR-4 = system: OVCAR-4
SK-OV-3 = system: SK-OV-3
OVCAR-8 = system: OVCAR-8
UO-31 = system: UO-31
SF-268 = system: SF-268
HCT-15 = system: HCT-15
786-0 = system: 786-0
U-251 = system: U-251
SW-620 = system: SW-620
CAKI-1 = system: CAKI-1
HOP-92 = system: HOP-92
COLO 205 = system: COLO 205
LOX IMVI = system: LOX IMVI
SF-539 = system: SF-539

Nc1nc2c(ncn2Cc2ccccc2CCO)c(=O)[nH]1
GI50 (NCI-H226): 41 µM (inactive) | GI50 (HT-29): > 100 µM (inactive) | GI50 (SK-MEL-28): > 100 µM (inactive) | GI50 (OVCAR-4): > 100 µM (inactive) | GI50 (SK-OV-3): > 100 µM (inactive) | GI50 (OVCAR-8): > 100 µM (inactive) | GI50 (UO-31): > 100 µM (inactive) | GI50 (SF-268): > 100 µM (inactive) | GI50 (HCT-15): > 100 µM | GI50 (786-0): > 100 µM (inactive) | GI50 (U-251): > 100 µM (inactive) | GI50 (SW-620): > 100 µM (inactive) | GI50 (CAKI-1): > 100 µM (inactive) | GI50 (HOP-92): > 100 µM (inactive) | GI50 (COLO 205): > 100 µM (inactive) | GI50 (LOX IMVI): > 100 µM (inactive)

COC(=O)/C=C(C)/C=C/C1OC(C)OCC1O (centres undefined)
GI50 (NCI-H226): > 100 µM (inactive) | GI50 (HT-29): > 100 µM (inactive) | GI50 (OVCAR-4): > 100 µM (inactive) | GI50 (SK-OV-3): > 100 µM (inactive) | GI50 (OVCAR-8): > 100 µM (inactive) | GI50 (UO-31): > 100 µM (inactive) | GI50 (SF-268): > 100 µM (inactive) | GI50 (HCT-15): > 100 µM | GI50 (786-0): > 100 µM (inactive) | GI50 (U-251): > 100 µM (inactive) | GI50 (SW-620): > 100 µM (inactive) | GI50 (CAKI-1): > 100 µM (inactive) | GI50 (HOP-92): > 100 µM (inactive) | GI50 (COLO 205): > 100 µM (inactive) | GI50 (SF-539): > 100 µM (inactive) | GI50 (LOX IMVI): > 100 µM (inactive)

COc1ccc(C2Oc3c(c(O)cc4c3[C@H](c3ccc(O)cc3O)[C@H](O)C(c3ccc(O)c(O)c3)O4)C[C@@H]2O)cc1O (some centres undefined)
GI50 (NCI-H226): > 100 µM (inactive) | GI50 (HT-29): > 100 µM (inactive) | GI50 (OVCAR-4): > 100 µM (inactive) | GI50 (SK-OV-3): > 100 µM (inactive) | GI50 (OVCAR-8): > 100 µM (inactive) | GI50 (UO-31): > 100 µM (inactive) | GI50 (SF-268): > 100 µM (inactive) | GI50 (HCT-15): > 100 µM | GI50 (786-0): > 100 µM (inactive) | GI50 (U-251): > 100 µM (inactive) | GI50 (SW-620): > 100 µM (inactive) | GI50 (CAKI-1): > 100 µM (inactive) | GI50 (HOP-92): > 100 µM (inactive) | GI50 (COLO 205): > 100 µM (inactive) | GI50 (SF-539): > 100 µM (inactive) | GI50 (LOX IMVI): > 100 µM (inactive)

COC(=O)C(=O)C(C(C)=O)C(=O)NCc1ccc(OC)c(OC)c1 (centres undefined)
GI50 (NCI-H226): > 100 µM (inactive) | GI50 (HT-29): > 100 µM (inactive) | GI50 (SK-MEL-28): > 100 µM (inactive) | GI50 (OVCAR-4): > 100 µM (inactive) | GI50 (SK-OV-3): > 100 µM (inactive) | GI50 (OVCAR-8): > 100 µM (inactive) | GI50 (UO-31): > 100 µM (inactive) | GI50 (SF-268): > 100 µM (inactive) | GI50 (HCT-15): > 100 µM | GI50 (786-0): > 100 µM (inactive) | GI50 (U-251): > 100 µM (inactive) | GI50 (SW-620): 40.5 µM (inactive) | GI50 (CAKI-1): > 100 µM (inactive) | GI50 (HOP-92): > 100 µM (inactive) | GI50 (COLO 205): > 100 µM (inactive) | GI50 (SF-539): > 100 µM (inactive) | GI50 (LOX IMVI): > 100 µM (inactive)

Cc1cc2c(C)n(Cc3ccc(Cl)cc3Cl)nc2c(C#N)c1C
GI50 (NCI-H226): > 42.2 µM (inactive) | GI50 (HT-29): 55.5 µM (inactive) | GI50 (SK-MEL-28): 36 µM (inactive) | GI50 (OVCAR-4): 9.89 µM (inactive) | GI50 (SK-OV-3): 19.1 µM (inactive) | GI50 (OVCAR-8): 14.8 µM (inactive) | GI50 (UO-31): 52.8 µM (inactive) | GI50 (SF-268): 32.3 µM (inactive) | GI50 (HCT-15): > 100 µM | GI50 (786-0): 13.6 µM (inactive) | GI50 (U-251): 22.1 µM (inactive) | GI50 (SW-620): > 100 µM (inactive) | GI50 (CAKI-1): 41.8 µM (inactive) | GI50 (HOP-92): 13.6 µM (inactive) | GI50 (COLO 205): > 95.5 µM (inactive) | GI50 (SF-539): 27.2 µM (inactive) | GI50 (LOX IMVI): 49.5 µM (inactive)

O=C(Nc1ccc(Br)cc1)C(=O)C(C(=O)c1ccc(Cl)c(Cl)c1)C1OC(=O)c2ccccc21 (centres undefined)
GI50 (NCI-H226): 4.56 µM (inactive) | GI50 (HT-29): 21.3 µM (inactive) | GI50 (SK-MEL-28): 13.7 µM (inactive) | GI50 (OVCAR-4): 16.3 µM (inactive) | GI50 (SK-OV-3): 35.1 µM (inactive) | GI50 (OVCAR-8): 12.3 µM (inactive) | GI50 (UO-31): 18.5 µM (inactive) | GI50 (SF-268): 4.99 µM (inactive) | GI50 (HCT-15): 20.9 µM | GI50 (786-0): 15 µM (inactive) | GI50 (U-251): 8.97 µM (inactive) | GI50 (SW-620): 14 µM (inactive) | GI50 (CAKI-1): 14.4 µM (inactive) | GI50 (HOP-92): 15 µM (inactive) | GI50 (COLO 205): 16.4 µM (inactive) | GI50 (LOX IMVI): 17.6 µM (inactive)

O=C1c2ccccc2N2OC3(N4CCOCC4)CCCC3C12c1ccccc1 (centres undefined)
GI50 (NCI-H226): > 100 µM (inactive) | GI50 (HT-29): > 100 µM (inactive) | GI50 (SK-MEL-28): > 100 µM (inactive) | GI50 (OVCAR-4): > 100 µM (inactive) | GI50 (SK-OV-3): > 100 µM (inactive) | GI50 (OVCAR-8): > 100 µM (inactive) | GI50 (UO-31): > 100 µM (inactive) | GI50 (SF-268): > 100 µM (inactive) | GI50 (HCT-15): > 100 µM | GI50 (786-0): > 100 µM (inactive) | GI50 (U-251): > 100 µM (inactive) | GI50 (SW-620): > 100 µM (inactive) | GI50 (HOP-92): 53.3 µM (inactive) | GI50 (COLO 205): > 100 µM (inactive) | GI50 (SF-539): > 100 µM (inactive)

CCN(CC)c1ccc(/N=N/c2ccc(-c3nc4cccn(C)c-4n3)cc2)cc1
GI50 (NCI-H226): 19.8 µM (inactive) | GI50 (HT-29): 1.98 µM (inactive) | GI50 (OVCAR-4): 11.2 µM (inactive) | GI50 (SK-OV-3): 17.3 µM (inactive) | GI50 (OVCAR-8): 10.3 µM (inactive) | GI50 (UO-31): 17.1 µM (inactive) | GI50 (SF-268): 13.2 µM (inactive) | GI50 (HCT-15): 3.75 µM | GI50 (786-0): 4.09 µM (inactive) | GI50 (U-251): 3.92 µM (inactive) | GI50 (SW-620): 7.36 µM (inactive) | GI50 (CAKI-1): 16.6 µM (inactive) | GI50 (HOP-92): 11.7 µM (inactive) | GI50 (COLO 205): 14.3 µM (inactive) | GI50 (SF-539): 12.7 µM (inactive) | GI50 (LOX IMVI): 2.52 µM (inactive)

Oc1nc2cc(Cl)ccc2nc1/C(=N\Nc1ccccc1)C(O)c1ccc(Cl)c(Cl)c1 (centres undefined)
GI50 (NCI-H226): > 100 µM (inactive) | GI50 (HT-29): > 100 µM (inactive) | GI50 (OVCAR-4): > 100 µM (inactive) | GI50 (SK-OV-3): > 100 µM (inactive) | GI50 (OVCAR-8): > 100 µM (inactive) | GI50 (UO-31): > 100 µM (inactive) | GI50 (SF-268): 47.1 µM (inactive) | GI50 (HCT-15): > 100 µM | GI50 (786-0): > 100 µM (inactive) | GI50 (U-251): > 100 µM (inactive) | GI50 (SW-620): > 100 µM (inactive) | GI50 (HOP-92): > 100 µM (inactive) | GI50 (COLO 205): > 100 µM (inactive) | GI50 (SF-539): > 100 µM (inactive) | GI50 (LOX IMVI): > 100 µM (inactive)
